Measurements reported in patent US20240384268A1, “Oligonucleotides” (Hudson Institute of Medical Research, priority 2021, published 2024).
pIC50: −log10 of the molar value. In the oligonucleotide strings, read from the 5' end, every base follows the letter of its sugar. An asterisk marks phosphorothioate; unmarked linkages are phosphodiester. Other units and linkages are bracketed, terminal groups are in braces. A string of capitals states the bases alone. d = 2'-deoxy (DNA); m = 2'-O-methyl

target: cGAS (Homo sapiens, UniProt Q8N884); test: ISD70-driven IP-10 (and IFN-β) production in THP-1 cells, ELISA; assay type: cell-based; parameters: endogenous in cells; host or cells: THP-1 (undifferentiated); conditions: ASO 100 nM; relative to ISD70 only, given as fraction
Sequence (Q8N884 whole entry): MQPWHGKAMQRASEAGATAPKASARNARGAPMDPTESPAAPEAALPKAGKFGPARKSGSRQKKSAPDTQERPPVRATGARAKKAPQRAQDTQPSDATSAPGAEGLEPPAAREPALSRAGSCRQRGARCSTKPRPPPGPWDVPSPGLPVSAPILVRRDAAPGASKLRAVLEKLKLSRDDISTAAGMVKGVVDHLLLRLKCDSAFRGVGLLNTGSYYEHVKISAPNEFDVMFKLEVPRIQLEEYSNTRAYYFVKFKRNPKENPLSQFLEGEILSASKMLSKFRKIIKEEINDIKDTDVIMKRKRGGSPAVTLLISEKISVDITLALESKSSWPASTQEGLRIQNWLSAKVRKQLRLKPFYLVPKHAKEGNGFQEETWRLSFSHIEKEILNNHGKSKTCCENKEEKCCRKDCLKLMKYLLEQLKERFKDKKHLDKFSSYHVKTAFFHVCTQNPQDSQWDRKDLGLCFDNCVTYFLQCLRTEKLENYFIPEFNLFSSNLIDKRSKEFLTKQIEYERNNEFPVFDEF

**Q.** “ACACTTCGTGGGGTCC (antisense; LNA-modified, pattern not given here) [HPRT LNA-665 V1]” was tested. Which “cGAS 100 nM (averaged IP-10 level relative to ISD70 condition)” value did it give?
**A.** 0.516

**Q.** How did the “cGAS 100 nM (averaged IP-10 level relative to ISD70 condition)” value turn out when “CAACACTTCGTGGGGT (antisense; LNA-modified, pattern not given here) [HPRT LNA-667 V1]” was run?
**A.** 0.675

**Q.** Which “cGAS 100 nM (averaged IP-10 level relative to ISD70 condition)” value does the source give for “CCAAGATCAGCAGTCT (antisense; LNA-modified, pattern not given here) [CTNN2B-2341 LNA KL]” here?
**A.** 0.356

**Q.** With “CCATCCATGAGGTCCT (antisense; LNA-modified, pattern not given here) [CTNN2B-2545 LNA V1]” as the substance, how does the “cGAS 100 nM (averaged IP-10 level relative to ISD70 condition)” value read?
**A.** 0.533

**Q.** With “GATAGCACCTTCAGCA (antisense; LNA-modified, pattern not given here) [CTNN2B-1294 LNA KL]” as the substance, how does the “cGAS 100 nM (averaged IP-10 level relative to ISD70 condition)” value read?
**A.** 0.436

**Q.** With “GCAGGCTCAGTGATGT (antisense; LNA-modified, pattern not given here) [CTNN2B-1642 LNA V1]” as the substance, how does the “cGAS 100 nM (averaged IP-10 level relative to ISD70 condition)” value read?
**A.** 0.458

**Q.** With “GCATCCACCACGTCGT (antisense; LNA-modified, pattern not given here) [EGFR-3267 LNA V1]” as the substance, how does the “cGAS 100 nM (averaged IP-10 level relative to ISD70 condition)” value read?
**A.** 0.602

**Q.** With “GCCATCCACTTGATAG (antisense; LNA-modified, pattern not given here) [EGFR-2874 LNA V1]” as the substance, how does the “cGAS 100 nM (averaged IP-10 level relative to ISD70 condition)” value read?
**A.** 0.688

**Q.** How did the “cGAS 100 nM (averaged IP-10 level relative to ISD70 condition)” value turn out when “GCCATGCTGGCTCGGA (antisense; LNA-modified, pattern not given here) [CAMSAP1-2584 LNA V1]” was run?
**A.** 0.599

**Q.** How did the “cGAS 100 nM (averaged IP-10 level relative to ISD70 condition)” value turn out when “GCCATGTTTCTTCTTG (antisense; LNA-modified, pattern not given here) [MB21D1-1248 LNA KL]” was run?
**A.** 0.639

**Q.** Which “cGAS 100 nM (averaged IP-10 level relative to ISD70 condition)” value does the source give for “GGCTGGAATCCGAGTT (antisense; LNA-modified, pattern not given here) [EGFR-4705 LNA KL]” here?
**A.** 0.592

**Q.** Which “cGAS 100 nM (averaged IP-10 level relative to ISD70 condition)” value does the source give for “GGTTACGGCTCAGTAT (antisense; LNA-modified, pattern not given here) [CAMSAP1-4295 LNA KL]” here?
**A.** 0.661

**Q.** How did the “cGAS 100 nM (averaged IP-10 level relative to ISD70 condition)” value turn out when “GTATCGAAAGAGTCTG (antisense; LNA-modified, pattern not given here) [EGFR-3908 LNA KL]” was run?
**A.** 0.609

**Q.** For “GTCCCCTGTTGACTGG (antisense; LNA-modified, pattern not given here) [HPRT LNA-489 KL]”, which “cGAS 100 nM (averaged IP-10 level relative to ISD70 condition)” value is on record?
**A.** 0.606

**Q.** With “GTCTTGGCTTCGTGGA (antisense; LNA-modified, pattern not given here) [MB21D1-522 LNA V1]” as the substance, how does the “cGAS 100 nM (averaged IP-10 level relative to ISD70 condition)” value read?
**A.** 0.620

**Q.** Which “cGAS 100 nM (averaged IP-10 level relative to ISD70 condition)” value does the source give for “GTGTCTGGAAGCTTCC (antisense; LNA-modified, pattern not given here) [CTNN2B-809 LNA V1]” here?
**A.** 0.482

**Q.** How did the “cGAS 100 nM (averaged IP-10 level relative to ISD70 condition)” value turn out when “GTTCAGTCCTGTCCAT (antisense; LNA-modified, pattern not given here) [HPRT LNA-292 V1]” was run?
**A.** 0.563

**Q.** With “TCCAACACTTCGTGGG (antisense; LNA-modified, pattern not given here) [HPRT LNA-669 V1]” as the substance, how does the “cGAS 100 nM (averaged IP-10 level relative to ISD70 condition)” value read?
**A.** 0.539

**Q.** Which “cGAS 100 nM (averaged IP-10 level relative to ISD70 condition)” value does the source give for “TCGTAGTTGCTTCCTA (antisense; LNA-modified, pattern not given here) [MB21D1-1181 LNA KL]” here?
**A.** 0.610

**Q.** How did the “cGAS 100 nM (averaged IP-10 level relative to ISD70 condition)” value turn out when “TGATGGCCTCCCATCT (antisense; LNA-modified, pattern not given here) [HPRT LNA-332 V1]” was run?
**A.** 0.650

**Q.** How did the “cGAS 100 nM (averaged IP-10 level relative to ISD70 condition)” value turn out when “TGCACACTTCGTACCC (antisense; LNA-modified, pattern not given here) [CAMSAP1-4916 LNA V1]” was run?
**A.** 0.572

**Q.** Which “cGAS 100 nM (averaged IP-10 level relative to ISD70 condition)” value does the source give for “TGGCCTCCCATCTCCT (antisense; LNA-modified, pattern not given here) [HPRT LNA-329 V1]” here?
**A.** 0.494

**Q.** “TGTGATGGCCTCCCAT (antisense; LNA-modified, pattern not given here) [HPRT LNA-334 V1]” was tested. Which “cGAS 100 nM (averaged IP-10 level relative to ISD70 condition)” value did it give?
**A.** 0.557

**Q.** Which “cGAS 100 nM (averaged IP-10 level relative to ISD70 condition)” value does the source give for “TTCGTGGGGTCCTTTT (antisense; LNA-modified, pattern not given here) [HPRT LNA-661 V1]” here?
**A.** 0.520

**Q.** For “TTTTGGCTGGGATCAA (antisense; LNA-modified, pattern not given here) [CAMSAP1-4697 LNA KL]”, which “cGAS 100 nM (averaged IP-10 level relative to ISD70 condition)” value is on record?
**A.** 0.590

same assay, conditions: THP-1; 125 nM oligonucleotide 6 h, ISD70 overnight

**Q.** Which “IFN-β production after ISD70 transfection: reduction” value does the source give for “T*T*A* G*G*G* T*T*A* G*G*G* T*T*A* G*G*G* T*T*A* G*G*G [A151, reference compound]” here?
**A.** ~50%

**Q.** Which “IFN-β production after ISD70 transfection: reduction” value does the source give for “mG*mC*mG*mG*mU*A*T*C*C*A*T*G*T*C*C*mC*mA*mG*mG*mC (mG*mC*mG*mG*mU*dA*dT*dC*dC*dA*dT*dG*dT*dC*dC*mC*mA*mG*mG*mC; antisense) [C2-Mut1]” here?
**A.** blocked

same assay, conditions: THP-1; 300 nM LNA or 200 nM MOE ASO ~30 min; ISD70 overnight (FIG. 21, 23)

**Q.** For “GTGTCTGGAAGCTTCC (antisense; LNA-modified, pattern not given here) [CTNN2B-809 LNA V1]”, which “inhibition of cGAS in THP-1, LNA and MOE ASO validation (in words)” value is on record?
**A.** potently inhibited signalling

same assay, conditions: THP-1; 2′OMe or PS oligos, 100-250 nM, pre-treatment as in figure legends; ISD70 2.5 μg/ml

**Q.** Which “inhibition of ISD70-driven IP-10 production (in words)” value does the source give for “mC*mG*mU*T*T*C*C*C*C*C*C*C*C*C*C*C*C*C*C*C (CGUTTCCCCCCCCCCCCCCC; antisense; sugars from the 5' end m3 d17, all phosphorothioate, methylation of C not given here) [[C2]Mut1-v3-dC]” here?
**A.** lacked significant inhibitory activity

**Q.** “mG*mC*mG*mG*mU*A*T*C*C*A*T*G*T*C*C*mC*mA*mG*mG*mC (mG*mC*mG*mG*mU*dA*dT*dC*dC*dA*dT*dG*dT*dC*dC*mC*mA*mG*mG*mC; antisense) [C2-Mut1]” was tested. Which “inhibition of ISD70-driven IP-10 production (in words)” value did it give?
**A.** most inhibitory sequence of ISD70 sensing

**Q.** Which “inhibition of ISD70-driven IP-10 production (in words)” value does the source give for “mG*mG*mU*A*T*C*C*C*C*C*C*C*C*C*C*C*C*C*C*C (GGUATCCCCCCCCCCCCCCC; antisense; sugars from the 5' end m3 d17, all phosphorothioate, methylation of C not given here) [[C2]Mut1-dC]” here?
**A.** significantly more inhibitory than its precursor dC20

same assay, conditions: THP-1; 6 h pre-treatment, ISD70 2.5 μg/ml overnight (FIG. 3A); listed as C2-Mutl; read-out: IC50 (IP-10 production after ISD70 transfection)

**Q.** How did the pIC50 turn out when “mG*mC*mG*mG*mU*A*T*C*C*A*T*G*T*C*C*mC*mA*mG*mG*mC (mG*mC*mG*mG*mU*dA*dT*dC*dC*dA*dT*dG*dT*dC*dC*mC*mA*mG*mG*mC; antisense) [C2-Mut1]” was run?
**A.** ~7.25

same assay, conditions: THP-1; 6 h pre-treatment, ISD70 2.5 μg/ml overnight (FIG. 3A); read-out: IC50 (IP-10 production after ISD70 transfection)

**Q.** How did the pIC50 turn out when “T*T*A* G*G*G* T*T*A* G*G*G* T*T*A* G*G*G* T*T*A* G*G*G [A151, reference compound]” was run?
**A.** 6.78

**Q.** “mG*mC*mG*mG*mU*A*T*C*C*A*T*G*T*C*C*mC*mA*mG*mG*mC (mG*mC*mG*mG*mU*dA*dT*dC*dC*dA*dT*dG*dT*dC*dC*mC*mA*mG*mG*mC; antisense) [C2-Mut1]” was tested. Which pIC50 did it give?
**A.** 7.25
